For 36 compounds, fluorescence lifetime results are on record in the Deep4Chem optical property database.

The nature of the series: solvent given as SMILES.
Where [1] appears, read: in c1cc(-c2cccc(-n3c4ccccc4c4ccccc43)c2)cc(-n2c3ccccc3c3ccccc32)c1.
Where [2] appears, read: in O=P(c1ccccc1)(c1ccccc1)c1ccccc1Oc1ccccc1P(=O)(c1ccccc1)c1ccccc1.

The structures appear in SMILES notation.

`CC1(C)c2ccccc2N(c2ccc(-c3nc(C#N)c(C#N)nc3-c3ccc(N4c5ccccc5C(C)(C)c5ccccc54)cc3)cc2)c2ccccc21`: the fluorescence lifetime under setting [1] came to 30 ns.

The compound `CCCCCCCCN1C(=O)c2ccc3c4c(-c5ccc(-n6c7ccccc7c7ccccc76)cc5)cc5c6c(ccc(c7c(-c8ccc(-n9c%10ccccc%10c%10ccccc%109)cc8)cc(c2c37)C1=O)c64)C(=O)N(CCCCCCCC)C5=O` yielded a fluorescence lifetime (in ClC(Cl)Cl) of 3.4 ns.

For `CCCCCCCCCCCCN1C(=O)c2c(c3ccc4cc(-c5ccc(C=O)cc5)c(OC)cc4c3c3c2ccc2cc(-c4ccc(C=O)cc4)c(OC)cc23)C1=O`, where the note is “in ClCCl”, the fluorescence lifetime was 6.45 ns.

In turn, `C[Si](C)(C)c1cccc2c(C#N)cccc12` had a fluorescence lifetime (in C1CCCCC1) of 8 ns.

In the case of `CCCCCCCCCCCCNc1cccc2[n+]1[B-](F)(F)n1c(c3cccc4cccc1c43)=N2`, for the setting “in ClCCl”, the fluorescence lifetime came out at 2.5 ns.

For the compound `N[C@@H](Cc1ccc(O)cc1)C(=O)O`, the fluorescence lifetime (in O) amounted to 3.27 ns.

The compound `COc1ccc2c(c1)CCC1=C(C#Cc3ccc(Cl)cc3)O[B-](F)(F)[O+]=C12` had a fluorescence lifetime (in ClCCl) of 2.53 ns.

Compound `Cc1cc2ccccc2cc1C` yielded a fluorescence lifetime (in C1CCCCC1) of 133 ns.

On to `CC(C)(C)c1ccc2c(c1)c1cc(C(C)(C)C)ccc1n2-c1ccc(-c2ccc3c(c2)C2(c4cc(-c5ccc(-n6c7ccc(C(C)(C)C)cc7c7cc(C(C)(C)C)ccc76)cc5)ccc4-3)c3ccccc3S(=O)(=O)c3ccccc32)cc1`, for which the fluorescence lifetime (in ClCCl) was 1.8 ns.

As for `FC(F)(F)c1ccc(/C=C/c2ccc(-c3nnc(-c4ccc(-c5cc6ccccc6s5)cc4)o3)cc2)cc1`, the fluorescence lifetime worked out at 0.57 ns (in Cc1ccccc1) and 0.7 ns (in ClC(Cl)Cl).

`CCOC(=O)CN1C(=O)C2=C(c3ccc(C#N)cc3)N(CC(=O)OCC)C(=O)C2=C1c1ccccc1`: the fluorescence lifetime reads like this: (in CC#N) 5.78 ns; (in CS(C)=O) 7.07 ns; (in Cc1ccccc1) 4.24 ns.

As to `COc1ccc2nc(/N=N/c3ccc(N(C)C)cc3)sc2c1`, the fluorescence lifetime (in CC#N) is 4.92 ns and the fluorescence lifetime (in ClCCl) came to 4.98 ns.

Compound `O=C(O)CCCCCn1c2ccc(Br)cc2c(=O)c2cc(S(=O)(=O)O)ccc21` gave a fluorescence lifetime (in O) of 7.1 ns.

In the case of `CCCCCCCc1ccc(C2=[N+]3C(=C4c5cc(OCC(CC)CC)c(-c6ccc(CCCCCCC)o6)n5[B-](F)(F)[n+]5nnn(c54)[B-]3(F)F)C=C2OCC(CC)CC)o1`, the fluorescence lifetime was found to be 0.3 ns (in C1CCOC1) and 0.3 ns (in ClCCl).

With `Cc1cc(C#Cc2ccccc2)c2ccc3c(C#Cc4ccccc4)cc(C#Cc4ccccc4)c4ccc1c2c43`, the fluorescence lifetime reads like this: (in CS(C)=O) 1.89 ns; (in ClC(Cl)(Cl)Cl) 1.57 ns.

For `Cn1nc(-c2ccccc2)c2nc3cc(Cl)ccc3nc21`, the fluorescence lifetime worked out at 23.9 ns (in C1CCCCC1), 20.1 ns (in C1CCOC1) and 7.74 ns (in CC#N).

For `F[B-]1(F)OC(c2ccccc2)=Cc2cc(Cl)nc[n+]21`, the fluorescence lifetime (in Cc1ccccc1) stood at 0.19 ns.

`c1ccc(N2c3ccc4ccccc4c3-c3c4ccccc4nc[n+]3[B-]2(c2ccccc2)c2ccccc2)cc1` gave a fluorescence lifetime (in C1CCC2CCCCC2C1) of 3.42 ns; a fluorescence lifetime (in C1CCCCC1) of 3.43 ns; a fluorescence lifetime (in C1CCOC1) of 0.54 ns; a fluorescence lifetime (in CC#N) of 0.21 ns; a fluorescence lifetime (in CC(C)=O) of 0.21 ns; a fluorescence lifetime (in CCCCCC) of 3.4 ns. Also, the fluorescence lifetime by setting is: (in CCOC(C)=O) 0.57 ns; (in Cc1ccccc1) 1.56 ns; (in ClC(Cl)Cl) 0.49 ns.

`CC1=C2C=CC=[N+]2[B-](F)(F)n2cccc21` registered a fluorescence lifetime (in CCCCCC) of 6.62 ns, a fluorescence lifetime (in CO) of 6.69 ns and a fluorescence lifetime (in ClCCl) of 6.16 ns.

Turning to `[NH-]c1cc(N)cc(-c2nc3ccccc3s2)c1`, the fluorescence lifetime (in O) came to 3.98 ns.

For the setting “in C1CCOC1”, `O=C1/C(=C2\Nc3cc4ccc5cccc6ccc(c3C2=O)c4c56)Nc2cc3ccc4cccc5ccc(c21)c3c45` returned a fluorescence lifetime of 0.42 ns.

For `CCCCCCCCCCCCOc1ccc(C#Cc2ccc(C#Cc3ccc(OCCCCCCCCCCCC)c(OCCCCCCCCCCCC)c3)c3nc4c5ccccc5c5ccccc5c4nc23)cc1OCCCCCCCCCCCC`, the fluorescence lifetime (in C1CCOC1) turned out to be 8.22 ns, the fluorescence lifetime (in Cc1ccccc1) stood at 7.13 ns and the fluorescence lifetime (in ClCCl) was 8.62 ns.

In the case of `O=C(c1ccc(N2c3ccccc3[Si](c3ccccc3)(c3ccccc3)c3ccccc32)cc1)c1ccc(N2c3ccccc3[Si](c3ccccc3)(c3ccccc3)c3ccccc32)cc1`, the fluorescence lifetime (in c1cc(-n2c3ccccc3c3ccccc32)cc(-n2c3ccccc3c3ccccc32)c1) is 134 ns.

With `CCC1=C(C)C2=C(C)c3cc(I)c(I)n3[B-](F)(F)[N+]2=C1C`, the fluorescence lifetime by setting is: (in C1CCCCC1) 1.02 ns; (in CC(C)=O) 0.82 ns; (in CCO) 0.939 ns; (in CCOC(C)=O) 0.893 ns; (in CO) 0.882 ns; (in OCC(F)(F)F) 0.779 ns.

With `c1ccc2c(c1)Sc1ccc(-n3c4ccccc4c4ccccc43)cc1S2`, the fluorescence lifetime reads like this: (in CC1CCCCC1) 9.4 ns; under setting [2], 3.5 ns; under setting [1], 5.1 ns.

Turning to `O=C1c2ccccc2-c2cnccc21`, the fluorescence lifetime runs as follows: (in CC#N) 6.7 ns; (in CCOC(C)=O) 2.4 ns; (in Cc1ccccc1) 2.2 ns; (in ClCCl) 6.1 ns.

With `c1ccc2c(-c3ccc4sc5ccccc5c4c3)c3ccccc3cc2c1`, the fluorescence lifetime by setting is: (in C1CCCCC1) 4.1 ns; (in CC#N) 4.5 ns; (in ClCCl) 5 ns.

`c1cc2c3c(c1)-c1cccc4cccc(c14)B3c1cccc3cccc-2c13` yielded a fluorescence lifetime (in Cc1ccccc1) of 6.31 ns.

For the compound `CCCCCCCc1ccc(C2=[N+]3C(=C4c5cc(OCC(CC)CC)c(-c6ccc(CCCCCCC)o6)n5[B-](F)(F)[n+]5c4n(c4cc(C(C)(C)C)ccc45)[B-]3(F)F)C=C2OCC(CC)CC)o1`, the fluorescence lifetime came to 0.4 ns (in C1CCOC1) and 0.4 ns (in ClCCl).

Compound `CCCCCCC1(CCCCCC)c2ccccc2-c2ccc(-c3ccc(-c4cc(-c5ccccn5)nc(-c5ccccn5)c4)cc3)cc21` had a fluorescence lifetime (in ClCCl) of 0.77 ns.

`Cc1ccccc1C` returned a fluorescence lifetime (in C1CCCCC1) of 51 ns.

With `O=c1[nH]c(=O)n([C@@H]2O[C@H](CO)[C@@H](O)[C@H]2O)cc1-c1cc2ccccc2s1`, the fluorescence lifetime reads like this: (in C1COCCO1) 0.45 ns; (in CC#N) 0.49 ns; (in CO) 0.6 ns; (in O) 1.04 ns.

The compound `CC1=C(c2ccc(N(C)C)cc2)C(C)=[N+]2C1=C(c1c(-c3ccccn3)nc3ccccn13)c1c(C)cc(C)n1[B-]2(F)F` came in with a fluorescence lifetime (in ClCCl) of 0.5 ns.

`CC1(C)c2ccccc2N(c2ccccc2)c2ccc(-c3nc(-c4ccccc4)nc(-c4ccccc4)n3)cc21`: the fluorescence lifetime under setting [2] came out at 4.37 ns.

On to `Nc1ccc2c3c(cccc13)C(=O)c1ccccc1-2`, for which the fluorescence lifetime is 5.9 ns (in CC#N); 6.9 ns (in CC(C)=O); 2 ns (in CC(C)O); 9.2 ns (in CCCCOCCCC); 7.1 ns (in CCOC(C)=O); 9.5 ns (in CCOCC). The fluorescence lifetime was determined as 1.5 ns (in CO); 9.2 ns (in Cc1ccccc1); 8.6 ns (in Clc1ccccc1); 7.5 ns (in N#Cc1ccccc1); 7.8 ns (in O=C1CCCCC1).

In the case of `CC(C)(C)c1ccc(Oc2cc3c4c(cc(Oc5ccc(C(C)(C)C)cc5)c5c6c(Oc7ccc(C(C)(C)C)cc7)cc7c8c(cc(Oc9ccc(C(C)(C)C)cc9)c(c2c45)c86)C(=O)OC7=O)C(=O)OC3=O)cc1`, the fluorescence lifetime (in ClC(Cl)Cl) was 6.4 ns.
